Test results taken from patent publication US7713701B2, “DNA-binding polymers” (California Institute of Technology, priority 2004, dated 2010).
“And” between values parts separate entries of the source, which are not always exact repeats. Identical values can stand only once.

Key:
[1] = system: T-A base pair at N-terminal position of binding site 5′-A T N T A C A-3′ (N=T), 285 bp PCR product from plasmid pCW15; experiment: Quantitative DNase I footprint titration, T-A site; conditions: for Equilibrium association constant, T-A: DNase I footprint titration, 22° C., pH 7.0, 10 mM Tris-HCl, 10 mM KCl, 10 mM MgCl2, 5 mM CaCl2, mean of at least three, SD in parentheses; for preference / specificity for T-A relative to G-C / selectivity for T-A relative to A-T: ratio of association constants
Description: (§1) Oligonucleotide primers SF1 (5′-AATTC-GAGCTCGGTACCGGGG-3′; SEQ ID NO:1) and SF2(5′-[…]-3′; SEQ ID NO:2) were synthesized by the Biopolymer Synthesis Center at the California Institute of Technology. Products from PCR amplification of the pCW15 using 5′-[γ-^32P]-labeled SF1 and SF2 were purified on a 7% non-denaturing polyacrylamide gel. Glycogen (20 mg/mL), dNTPs (PCR nucleotide mix), and all enzymes, unless otherwise stated, were purchased from Boehringer-Mannheim. Deoxyadenosine [γ-^32P]triphosphate was obtained from ICN. Calf thymus DNA (sonicated, deproteinized) and DNase I (7500 units/mL. FPLC pure) were from Amersham Pharmacia. AmpliTaq DNA polymerase was obtained from Perkin-Elmer and was used with provided buffers. Tris.HCl, DTT, RNase-free water, and 0.5 M EDTA were from United States Biochemical. Calcium chloride, potassium chloride, and magnesium chloride were purchased from Fluka. Tris-borate-EDTA was from GIBCO and bromophenol blue was from Acros. All reagents were used without further purification.
(§2) The DNA sequence specificity of novel thiophene-2-carboxamide-containing polymers (DNA-binding polymers 1-8) was evaluated by comparing their affinities for each Watson-Crick base pair to those of N-methylimidazole (Im) and N-methylpyrrole (Py) (DNA-binding polymers 9-10). […] Affinities were determined using DNase I footprinting, as performed by standard protocols (e.g., Trauger et al., Methods Enzymol. 2001, 340, 450).
(§3) Briefly, Quantitative DNase I footprinting titration experiments (10 mM Tris-HCl. 10 mM KCl, 10 mM MgC2, 5 mM CaCl2, pH 7.0, 22° C.) were performed on 5′-^32P end-labeled, 285 bp PCR product from plasmid construct pCW15 (as described previously in Ellervik et al., J. Am. Chem. Soc. 2000, 122, 9354). This plasmid contains four binding sites that vary at a single N-terminal position, 5′-A T N T A C A-3′, where N=T, A, G, C. The divergent behavior of control DNA-binding polymers 9 and 10 illustrates the need for development of new N-terminal residues.

[2] = system: A-T base pair at N-terminal position of binding site 5′-A T N T A C A-3′ (N=A), 285 bp PCR product from plasmid pCW15; experiment: Quantitative DNase I footprint titration, A-T site; conditions: 22° C., pH 7.0, 10 mM Tris-HCl, 10 mM KCl, 10 mM MgCl2, 5 mM CaCl2, mean of at least three, SD in parentheses
Description: as §1, §2, §3

[3] = system: G-C base pair at N-terminal position, binding site 5′-A T G T A C A-3′, 285 bp PCR product from plasmid pCW15; experiment: Quantitative DNase I footprint titration, G-C site; conditions: for Equilibrium association constant, G-C: DNase I footprint titration, 22° C., pH 7.0, 10 mM Tris-HCl, 10 mM KCl, 10 mM MgCl2, 5 mM CaCl2, mean of at least three, SD in parentheses
Description: as §1, §2, §3

[4] = system: C-G base pair at N-terminal position of binding site 5′-A T N T A C A-3′ (N=C), 285 bp PCR product from plasmid pCW15; experiment: Quantitative DNase I footprint titration, C-G site; conditions: 22° C., pH 7.0, 10 mM Tris-HCl, 10 mM KCl, 10 mM MgCl2, 5 mM CaCl2, mean of at least three, SD in parentheses
Description: as §1, §2, §3

[5] = system: four binding sites 5′-A T N T A C A-3′, N=T, A, G, C, of pCW15 PCR product; experiment: DNase I footprinting, sequence specificity across the four sites; conditions: comparison of affinities for the four Watson-Crick base pairs
Description: as §1, §2, §3

Structure (SMILES) | Equilibrium association constant, T-A [1] | Equilibrium association constant, A-T [2] | Equilibrium association constant, G-C [3] | Equilibrium association constant, C-G [4] | sequence specificity (in words) [5] | preference / specificity for T-A relative to G-C [1] | selectivity for T-A relative to A-T [1] | preference for G-C relative to T-A, A-T, and C-G base pairs ([3]; ratio of association constants)
CN(C)CCCNC(=O)CCNC(=O)c1cc(NC(=O)c2cc(NC(=O)c3cc(NC(=O)c4nc(NC(=O)CCCNC(=O)c5cc(NC(=O)c6cc(NC(=O)c7cc(NC(=O)c8cccs8)cn7C)cn6C)cn5C)cn4C)cn3C)cn2C)cn1C [compound 1] | 6.0 (0.7) × 10^9 M^−1 | 4.7 (0.7) × 10^9 M^−1 | 4.3 (0.4) × 10^8 M^−1 | 2.2 (0.3) × 10^9 M^−1 | little sequence specificity |  |  | 
Cc1ccsc1C(=O)Nc1cc(C(=O)Nc2cc(C(=O)Nc3cc(C(=O)NCCCC(=O)Nc4cn(C)c(C(=O)Nc5cc(C(=O)Nc6cc(C(=O)Nc7cc(C(=O)NCCC(=O)NCCCN(C)C)n(C)c7)n(C)c6)n(C)c5)n4)n(C)c3)n(C)c2)n(C)c1 [compound 2] | 2.3 (0.4) × 10^9 M^−1 | 1.4 (0.2) × 10^9 M^−1 | 1.0 (0.4) × 10^7 M^−1 | 1.0 (0.3) × 10^7 M^−1 |  | 140 fold |  | 
CN(C)CCCNC(=O)CCNC(=O)c1cc(NC(=O)c2cc(NC(=O)c3cc(NC(=O)c4nc(NC(=O)CCCNC(=O)c5cc(NC(=O)c6cc(NC(=O)c7cc(NC(=O)c8sccc8N)cn7C)cn6C)cn5C)cn4C)cn3C)cn2C)cn1C [compound 3] | 6.3 (1.0) × 10^9 M^−1 | 4.6 (0.6) × 10^9 M^−1 | 7.8 (0.9) × 10^8 M^−1 | 2.2 (0.3) × 10^8 M^−1 | distinguish T-A from G-C but again do not distinguish T-A from A-T |  |  | 
CC(=O)Nc1ccsc1C(=O)Nc1cc(C(=O)Nc2cc(C(=O)Nc3cc(C(=O)NCCCC(=O)Nc4cn(C)c(C(=O)Nc5cc(C(=O)Nc6cc(C(=O)Nc7cc(C(=O)NCCC(=O)NCCCN(C)C)n(C)c7)n(C)c6)n(C)c5)n4)n(C)c3)n(C)c2)n(C)c1 [compound 4] | 5.9 (0.3) × 10^9 M^−1 | 2.9 (0.1) × 10^9 M^−1 | 6.6 (0.4) × 10^8 M^−1 | 6.0 (0.2) × 10^8 M^−1 | distinguish T-A from G-C but again do not distinguish T-A from A-T |  |  | 
CN(C)CCCNC(=O)CCNC(=O)c1cc(NC(=O)c2cc(NC(=O)c3cc(NC(=O)c4nc(NC(=O)CCCNC(=O)c5cc(NC(=O)c6cc(NC(=O)c7cc(NC(=O)c8sccc8O)cn7C)cn6C)cn5C)cn4C)cn3C)cn2C)cn1C [compound 5] | 6.2 (0.6) × 10^9 M^−1 | 4.5 (0.6) × 10^9 M^−1 | 2.1 (0.3) × 10^8 M^−1 | 8.4 (0.1) × 10^7 M^−1 | distinguish T-A from G-C but again do not distinguish T-A from A-T |  |  | 
COc1ccsc1C(=O)Nc1cc(C(=O)Nc2cc(C(=O)Nc3cc(C(=O)NCCCC(=O)Nc4cn(C)c(C(=O)Nc5cc(C(=O)Nc6cc(C(=O)Nc7cc(C(=O)NCCC(=O)NCCCN(C)C)n(C)c7)n(C)c6)n(C)c5)n4)n(C)c3)n(C)c2)n(C)c1 [compound 6] | 2×10^9 M^−1 and 2.0 (0.4) × 10^9 M^−1 | 3.2 (0.6) × 10^8 M^−1 | ≦1.0 × 10^7 M^−1 | ≦1.0 × 10^7 M^−1 |  | > 200 fold | 6 fold | 
CN(C)CCCNC(=O)CCNC(=O)c1cc(NC(=O)c2cc(NC(=O)c3cc(NC(=O)c4nc(NC(=O)CCCNC(=O)c5cc(NC(=O)c6cc(NC(=O)c7cc(NC(=O)c8sccc8F)cn7C)cn6C)cn5C)cn4C)cn3C)cn2C)cn1C [compound 7] | 1.2 (0.2) × 10^10 M^−1 | 3.9 (0.3) × 10^9 M^−1 | 3.7 (0.4) × 10^8 M^−1 | 2.9 (0.3) × 10^8 M^−1 |  |  | 3 fold | 
CN(C)CCCNC(=O)CCNC(=O)c1cc(NC(=O)c2cc(NC(=O)c3cc(NC(=O)c4nc(NC(=O)CCCNC(=O)c5cc(NC(=O)c6cc(NC(=O)c7cc(NC(=O)c8sccc8Cl)cn7C)cn6C)cn5C)cn4C)cn3C)cn2C)cn1C [compound 8] | 1.3 (0.2) × 10^10 M^−1 | 3.7 (0.2) × 10^9 M^−1 | 3.1 (0.6) × 10^8 M^−1 | 2.1 (1.1)× 10^8 M^−1 |  |  | 3 fold | 
CN(C)CCCNC(=O)CCNC(=O)c1cc(NC(=O)c2cc(NC(=O)c3cc(NC(=O)c4nc(NC(=O)CCCNC(=O)c5cc(NC(=O)c6cc(NC(=O)c7cc(NC(=O)c8nccn8C)cn7C)cn6C)cn5C)cn4C)cn3C)cn2C)cn1C [compound 9] | 3.8 (0.3) × 10^9 M^−1 | 2.8 (0.2) × 10^9 M^−1 |  | 3.2 (0.4) × 10^9 M^−1 |  |  |  | > 15 fold
CN(C)CCCNC(=O)CCNC(=O)c1cc(NC(=O)c2cc(NC(=O)c3cc(NC(=O)c4nc(NC(=O)CCCNC(=O)c5cc(NC(=O)c6cc(NC(=O)c7cc(NC(=O)c8cccn8C)cn7C)cn6C)cn5C)cn4C)cn3C)cn2C)cn1C [compound 10] | 5.1 (0.6) × 10^9 M^−1 | 3.1 (0.3) × 10^9 M^−1 | 1.1 (0.1) × 10^9 M^−1 | 2.6 (0.3) × 10^8 M^−1 | little sequence specificity |  |  | 
